# According to patent US9587187B2, “Alkyl trityl phenyl ethers” (Rohm and Haas Company, priority 2013, dated 2017):
# Test: Solubility studies of alkyl trityl phenyl ethers in solvents at −10° C.
# Type: physicochemical
# Settings: freezer at −10° C., checked daily for crystallization
# Description: Solubility Studies: The solubility properties of the alkyl trityl phenyl ethers were determined by mixing 0.1 grams of test sample with 0.9 grams of solvent. The mixtures were warmed to 60° C. for a few minutes to make homogeneous solutions. The solutions were cooled back to room temperature, and then they were placed into a freezer at −10° C. The solutions were checked daily to see if crystallization had occurred. The solvents evaluated were ADVASOL 200H (mixed aromatics solvent from Advanced Aromatics), ADVASOL 200H ND (naphthalene-depleted mixed aromatics solvent from Advanced Aromatics), cyclohexanone, and o-sec-butyl phenol (OSBP).
# [1] = 10 wt.% alkyl trityl phenyl ether in 200H - OSBP (75:25, w:w)
# [2] = 10 wt.% alkyl trityl phenyl ether in 200H - cyclohexanone (75:25, w:w)
# [3] = 10 wt.% alkyl trityl phenyl ether in 200H ND - OSBP (75:25, w:w)
# [4] = 10 wt.% alkyl trityl phenyl ether in 200H ND - cyclohexanone (75:25, w:w)
SMILES,"Solubility at −10° C., Days [1]","Solubility at −10° C., Days [2]","Solubility at −10° C., Days [3]","Solubility at −10° C., Days [4]","Solubility at −10° C., Days (10 wt.% alkyl trityl phenyl ether in 200H (ADVASOL 200H mixed aromatics solvent))","Solubility at −10° C., Days (10 wt.% alkyl trityl phenyl ether in 200H ND (naphthalene-depleted mixed aromatics solvent))"
CCCCCCCCCCOc1ccc(C(c2ccccc2)(c2cccc(C)c2)c2cccc(C)c2)cc1C(C)CC (stereo not drawn) [mmMS4-10],Soluble after 102,Soluble after 102,,,,
"CCCCCCOc1ccc(C(c2ccccc2)(c2ccccc2)c2ccc(C)cc2)cc1OCCCCCC [pM3,4-6, ((3,4-Bis(hexyloxy)phenyl)(p-tolyl)methylene)dibenzene]",Soluble after 76 days,Soluble after 7 days,Soluble after 76 days,Soluble after 7 days,,
CCCCCCCCCCOc1ccc(C(c2ccccc2)(c2ccccc2)c2ccc(C)cc2)cc1C(C)CC (stereo not drawn) [pMS4-10],Soluble after 7 days,Soluble after 7 days,Soluble after 7 days,Soluble after 7 days,Soluble after 7 days,Soluble after 7 days
